From patent US9221791B2, “Metalloenzyme inhibitor compounds” (Viamet Pharmaceuticals, Inc., priority 2011, dated 2015)
≈ marks a conversion by molar mass, not a printed value.

The compounds below were run on Septoria tritici (ATCC 26517) (assay: Minimum Inhibitory Concentration (MIC) (Septoria tritici), CLSI-based microdilution). Conditions: S. tritici ATCC 26517; 22° C. for seven days; 50% reduction in growth.
Type: cell-based
Protocol: C. Minimum Inhibitory Concentration (MIC) (Septoria tritici)
Compounds of the present disclosure were assessed for their ability to inhibit the growth of a common strain of the fungal plant pathogen Septoria tritici (ATCC 26517) using a procedure based on a Clinical and Laboratory Standards Institute (CLSI) microdilution assay protocol for filamentous fungi.
Stock solutions of the test compounds and standards were prepared in DMSO at 6400 μg/mL. Each stock solution was used to prepare a 2-fold dilution series ranging from 16 to 0.016 μg/mL (total of 11 compound concentrations) in RPMI-1640 (Roswell Park Memorial Institute) medium containing 3-(N-morpholino)propanesulfonic acid (MOPS) buffer and 2% DMSO. A 100 μL aliquot of the dilutions was added to columns 1 (16 μg/mL compound) through 11 (0.016 μg/mL compound) of a 96-well microtiter plate. This format was replicated in a second row of the microtiter plate. Thus, each microtiter plate could include 11 concentrations of four test or control compounds replicated twice. A 100 μL aliquot of RPMI-1640/MOPS/2% DMSO medium was added to column 12 (no compound control) of the microtiter plate.
A fresh culture of S. tritici was used to prepare a solution of approximately 5×10^4 colony-forming units per milliliter (cfu/mL) in RPMI/MOPS medium without DMSO. A 100 µL aliquot of this solution was added to all 96 wells in the microtiter plate. […] The assay plates were incubated at 22° C. for seven days in the dark without shaking.
In each case of Table 3 the Septoria rating scale is as follows: […]

SMILES | Septoria Rating (MIC)
OC(Cn1cnnn1)(c1ccc(F)cc1F)C(F)(F)c1ccc(-c2ccc(Cl)nc2)cn1 (stereo not drawn) [30(+), 1-(6′-Chloro-[3,3′-bipyridin]-6-yl)-2-(2,4-difluorophenyl)-1,1-difluoro-3-(1H-tetrazol-1-yl)propan-2-ol] | B (>1.5-1.5)
OC(Cn1cnnn1)(c1ccc(F)cc1F)C(F)(F)c1ccc(-c2ccc(F)nc2)cn1 (stereo not drawn) [31(+), 2-(2,4-Difluorophenyl)-1,1-difluoro-1-(6′-fluoro-[3,3′-bipyridin]-6-yl)-3-(1H-tetrazol-1-yl)propan-2-ol] | A (≦0.5)

Same assay, conditions: Zymoseptoria tritici, ATCC26517, 168 h, S. tritici ATCC 26517; 22° C. for seven days; 50% reduction in growth; read-out: Septoria Rating (MIC)

MIC | SMILES
1.5 µg/mL (≈ 4.04 µM) | OC(Cn1cnnn1)(c1ccc(F)cc1F)C(F)(F)c1cc(F)ccn1 (single isomer, unassigned) [ent-13, 2-(2,4-Difluorophenyl)-1,1-difluoro-1-(4-fluoropyridin-2-yl)-3-(1H-tetrazol-1-yl)propan-2-ol]
1.5 µg/mL (≈ 3.71 µM) | N#C/C=C/c1ccc(C(F)(F)C(O)(Cn2cnnn2)c2ccc(F)cc2F)nc1 (centres unmarked) [Compound 3, (E)-3-(6-(2-(2,4-Difluorophenyl)-1,1-difluoro-2-hydroxy-3-(1H-tetrazol-1-yl)propyl)pyridin-3-yl)acrylonitrile]
≤ 0.5 µg/mL | CCOC(=O)CCc1ccc(C(F)(F)C(O)(Cn2cnnn2)c2ccc(F)cc2F)nc1 (centres unmarked) [Compound 5, Ethyl 3-(6-(2-(2,4-difluorophenyl)-1,1-difluoro-2-hydroxy-3-(1H-tetrazol-1-yl)propyl)pyridin-3-yl)propanoate]
1.5 to 4 µg/mL (≈ 3.56 to 9.49 µM) | CC(=O)/C=C/c1ccc(C(F)(F)C(O)(Cn2cnnn2)c2ccc(F)cc2F)nc1 (centres unmarked) [Compound 7, (E)-4-(6-(2-(2,4-Difluorophenyl)-1,1-difluoro-2-hydroxy-3-(1H-tetrazol-1-yl)propyl)pyridin-3-yl)but-3-en-2-one]
1.5 µg/mL (≈ 3.54 µM) | CC(=O)CCc1ccc(C(F)(F)C(O)(Cn2cnnn2)c2ccc(F)cc2F)nc1 (centres unmarked) [Compound 8, 4-(6-(2-(2,4-Difluorophenyl)-1,1-difluoro-2-hydroxy-3-(1H-tetrazol-1-yl)propyl)pyridin-3-yl)butan-2-one]
1.5 to 4 µg/mL (≈ 3.57 to 9.52 µM) | OC(Cn1cnnn1)(c1ccc(F)cc1F)C(F)(F)c1ccc(-n2nccn2)cn1 (centres unmarked) [Compound 9, 1-(5-(2H-1,2,3-Triazol-2-yl)pyridin-2-yl)-2-(2,4-difluorophenyl)-1,1-difluoro-3-(1H-tetrazol-1-yl)propan-2-ol]
1.5 to 4 µg/mL (≈ 4.06 to 10.8 µM) | OC(Cn1cnnn1)(c1ccc(Cl)cc1F)C(F)(F)c1ccccn1 (centres unmarked) [Compound 11, 2-(4-Chloro-2-fluorophenyl)-1,1-difluoro-1-(pyridin-2-yl)-3-(1H-tetrazol-1-yl)propan-2-ol]
1.5 µg/mL (≈ 3.87 µM) | OC(Cn1cnnn1)(c1ccc(F)cc1F)C(F)(F)c1ccc(Cl)cn1 (centres unmarked) [Compound 12, 1-(5-Chloropyridin-2-yl)-2-(2,4-difluorophenyl)-1,1-difluoro-3-(1H-tetrazol-1-yl)propan-2-ol]
1.5 to 4 µg/mL (≈ 3.87 to 10.3 µM) | OC(Cn1cnnn1)(c1ccc(F)cc1F)C(F)(F)c1cc(Cl)ccn1 (centres unmarked) [Compound 14, 1-(4-Chloropyridin-2-yl)-2-(2,4-difluorophenyl)-1,1-difluoro-3-(1H-tetrazol-1-yl)propan-2-ol]
1.5 to 4 µg/mL (≈ 3.56 to 9.49 µM) | OC(Cn1cnnn1)(c1ccc(F)cc1F)C(F)(F)c1ccc(C(F)(F)F)cn1 (centres unmarked) [Compound 19, 2-(2,4-Difluorophenyl)-1,1-difluoro-3-(1H-tetrazol-1-yl)-1-(5-(trifluoromethyl)pyridin-2-yl)propan-2-ol]
1.5 to 4 µg/mL (≈ 3.47 to 9.26 µM) | OC(Cn1cnnn1)(c1ccc(F)cc1F)C(F)(F)c1cccc(Br)n1 (centres unmarked) [Compound 20, 1-(6-Bromopyridin-2-yl)-2-(2,4-difluorophenyl)-1,1-difluoro-3-(1H-tetrazol-1-yl)propan-2-ol]
> 4 µg/mL | OC(Cn1cnnn1)(c1cc(F)ccc1F)C(F)(F)c1ccc(Br)cn1 (centres unmarked) [Compound 21, 1-(5-Bromopyridin-2-yl)-2-(2,5-difluorophenyl)-1,1-difluoro-3-(1H-tetrazol-1-yl)propan-2-ol]
1.5 to 4 µg/mL (≈ 3.11 to 8.3 µM) | OC(Cn1cnnn1)(c1ccc(C(F)(F)F)cc1F)C(F)(F)c1ccc(Br)cn1 (centres unmarked) [Compound 23, 1-(5-Bromopyridin-2-yl)-1,1-difluoro-2-(2-fluoro-4-(trifluoromethyl)phenyl)-3-(1H-tetrazol-1-yl)propan-2-ol]
1.5 to 4 µg/mL (≈ 3.47 to 9.26 µM) | OC(Cn1cnnn1)(c1ccc(F)cc1F)C(F)(F)c1cc(Br)ccn1 (centres unmarked) [Compound 24, 1-(4-Bromopyridin-2-yl)-2-(2,4-difluorophenyl)-1,1-difluoro-3-(1H-tetrazol-1-yl)propan-2-ol]
1.5 to 4 µg/mL (≈ 3.01 to 8.03 µM) | OC(Cn1cnnn1)(c1ccc(F)cc1F)C(F)(F)c1ccc(-c2ccc(C(F)(F)F)nc2)cn1 (centres unmarked) [Compound 35, 2-(2,4-Difluorophenyl)-1,1-difluoro-3-(1H-tetrazol-1-yl)-1-(6′-(trifluoromethyl)-[3,3′-bipyridin]-6-yl)propan-2-ol]
1.5 to 4 µg/mL (≈ 3.25 to 8.67 µM) | COc1ncc(-c2ccc(C(F)(F)C(O)(Cn3cnnn3)c3ccc(F)cc3F)nc2)cn1 (centres unmarked) [Compound 37, 2-(2,4-Difluorophenyl)-1,1-difluoro-1-(5-(2-methoxypyrimidin-5-yl)pyridin-2-yl)-3-(1H-tetrazol-1-yl)propan-2-ol]
> 4 µg/mL | COC(=O)CSc1ccc(C(F)(F)C(O)(Cn2cnnn2)c2ccc(F)cc2F)nc1 (centres unmarked) [Compound 41, Methyl 2-((6-(2-(2,4-difluorophenyl)-1,1-difluoro-2-hydroxy-3-(1H-tetrazol-1-yl)propyl)pyridin-3-yl)thio)acetate]
> 4 µg/mL | OC(Cn1cnnn1)(c1ccc(F)cc1F)C(F)(F)c1ccc(/C=C/Cn2cnnn2)cn1 (centres unmarked) [Compound 42, (E)-1-(5-(3-(1H-Tetrazol-1-yl)prop-1-en-1-yl)pyridin-2-yl)-2-(2,4-difluorophenyl)-1,1-difluoro-3-(1H-tetrazol-1-yl)propan-2-ol]
1.5 to 4 µg/mL (≈ 3.66 to 9.77 µM) | OC/C=C/c1ccc(C(F)(F)C(O)(Cn2cnnn2)c2ccc(F)cc2F)nc1 (centres unmarked) [Compound 43, (E)-3-(6-(2-(2,4-Difluorophenyl)-1,1-difluoro-2-hydroxy-3-(1H-tetrazol-1-yl)propyl)pyridin-3-yl)prop-2-en-1-ol]
1.5 to 4 µg/mL (≈ 3.65 to 9.72 µM) | OCCCc1ccc(C(F)(F)C(O)(Cn2cnnn2)c2ccc(F)cc2F)nc1 (centres unmarked) [Compound 44, 3-(6-(2-(2,4-Difluorophenyl)-1,1-difluoro-2-hydroxy-3-(1H-tetrazol-1-yl)propyl)pyridin-3-yl)propan-1-ol]
1.5 to 4 µg/mL (≈ 3.54 to 9.45 µM) | CC(O)/C=C/c1ccc(C(F)(F)C(O)(Cn2cnnn2)c2ccc(F)cc2F)nc1 (centres unmarked) [Compound 46, (E)-4-(6-(2-(2,4-Difluorophenyl)-1,1-difluoro-2-hydroxy-3-(1H-tetrazol-1-yl)propyl)pyridin-3-yl)but-3-en-2-ol]
1.5 to 4 µg/mL (≈ 3.53 to 9.4 µM) | CC(O)CCc1ccc(C(F)(F)C(O)(Cn2cnnn2)c2ccc(F)cc2F)nc1 (centres unmarked) [Compound 47, 4-(6-(2-(2,4-Difluorophenyl)-1,1-difluoro-2-hydroxy-3-(1H-tetrazol-1-yl)propyl)pyridin-3-yl)butan-2-ol]
1.5 µg/mL (≈ 3.54 µM) | COC/C=C/c1ccc(C(F)(F)C(O)(Cn2cnnn2)c2ccc(F)cc2F)nc1 (centres unmarked) [Compound 48, (E)-2-(2,4-Difluorophenyl)-1,1-difluoro-1-(5-(3-methoxyprop-1-en-1-yl)pyridin-2-yl)-3-(1H-tetrazol-1-yl)propan-2-ol]
≤ 0.5 µg/mL | COC/C=C\c1ccc(C(F)(F)C(O)(Cn2cnnn2)c2ccc(F)cc2F)nc1 (centres unmarked) [Compound 49, (Z)-2-(2,4-Difluorophenyl)-1,1-difluoro-1-(5-(3-methoxyprop-1-en-1-yl)pyridin-2-yl)-3-(1H-tetrazol-1-yl)propan-2-ol]
1.5 µg/mL (≈ 3.53 µM) | COCCCc1ccc(C(F)(F)C(O)(Cn2cnnn2)c2ccc(F)cc2F)nc1 (centres unmarked) [Compound 50, 2-(2,4-Difluorophenyl)-1,1-difluoro-1-(5-(3-methoxypropyl)pyridin-2-yl)-3-(1H-tetrazol-1-yl)propan-2-ol]
≤ 0.5 µg/mL | CC(C)OCCCc1ccc(C(F)(F)C(O)(Cn2cnnn2)c2ccc(F)cc2F)nc1 (centres unmarked) [Compound 55, 2-(2,4-Difluorophenyl)-1,1-difluoro-1-(5-(3-isopropoxypropyl)pyridin-2-yl)-3-(1H-tetrazol-1-yl)propan-2-ol]
> 4 µg/mL | OC(c1ccc(C(F)(F)C(O)(Cn2cnnn2)c2ccc(F)cc2F)nc1)C(F)(F)F (centres unmarked) [Compound 56, (2-(2,4-Difluorophenyl)-1,1-difluoro-3-(1H-tetrazol-1-yl)-1-(5-(2,2,2-trifluoro-1-hydroxyethyl)pyridin-2-yl)propan-2-ol)]
> 4 µg/mL | OC(Cn1cnnn1)(c1ccc(F)cc1F)C(F)(F)c1ccc(-c2cnc(Cl)nc2)cn1 (centres unmarked) [Compound 57, 1-(5-(2-Chloropyrimidin-5-yl)pyridin-2-yl)-2-(2,4-difluorophenyl)-1,1-difluoro-3-(1H-tetrazol-1-yl)propan-2-ol]
1.5 µg/mL (≈ 3.5 µM) | OC(c1cncnc1)(c1ccc(F)cc1F)C(F)(F)c1ccc(Br)cn1 (centres unmarked) [Compound 58, 2-(5-Bromopyridin-2-yl)-1-(2,4-difluorophenyl)-2,2-difluoro-1-(pyrimidin-5-yl)ethanol]
1.5 to 4 µg/mL (≈ 3.81 to 10.2 µM) | C=CCc1ccc(C(F)(F)C(O)(Cn2cnnn2)c2ccc(F)cc2F)nc1 (centres unmarked) [Compound 61, 1-(5-Allylpyridin-2-yl)-2-(2,4-difluorophenyl)-1,1-difluoro-3-(1H-tetrazol-1-yl)propan-2-ol]
